# Laboratory results published in PubChem BioAssay AID1884 (NMMLSC, 2009).
# Activity calls are given as the source filed them. No rule for the calls is given here.
# Biological target: Regulator of G-protein signaling 19 (Homo sapiens) (UniProt P49795)
# Experiment: modulators of RGS19-Galphao binding, dose response, biochemical, multiplexed bead flow cytometry (AID 1884)
# Details: bead-based flow cytometry RGS19-Galphao binding
# Regulator of G-protein signaling 19 (Homo sapiens), sequence (P49795 whole entry, looked up): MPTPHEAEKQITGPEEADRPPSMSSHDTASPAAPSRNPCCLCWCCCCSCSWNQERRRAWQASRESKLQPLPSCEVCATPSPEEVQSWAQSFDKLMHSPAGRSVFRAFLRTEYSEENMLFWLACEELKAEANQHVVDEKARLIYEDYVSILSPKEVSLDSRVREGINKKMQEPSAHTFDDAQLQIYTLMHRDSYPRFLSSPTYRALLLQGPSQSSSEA
row,SMILES,EC50
1,CC(C)Sc1nc2ccc(N3C(=O)C4CCCCC4C3=O)cc2s1 (configuration not stated),> 30 µM (inactive)
2,CCOC(=O)C1=C(C)NC(C)=C(C(=O)OCCNC(=O)c2cccnc2)C1c1cccc([N+](=O)[O-])c1 (configuration not stated),> 30 µM (inactive)
3,CCOC(=O)N=Nc1c(O)n(C)c2ccccc12,> 30 µM (inactive)
4,NS(=O)(=O)c1ccc(N/N=C/c2ccc(O)c(O)c2O)c([N+](=O)[O-])c1,0.68 µM
5,CN(C)[C@@H]1C(=O)C(C(=O)NCN2CCCC2)=C(O)[C@@]2(O)C(=O)C3=C(O)c4c(O)cccc4[C@@](C)(O)C3CC12 (some centres not stated),7.53 µM
6,COc1ccc(Br)cc1/C=N/Nc1cccc(C(=O)O)c1,> 30 µM (inactive)
7,O=C1CCCC2=C1C(c1cccs1)n1ncnc1N2 (configuration not stated),> 30 µM (inactive)
8,CCOC(=O)/C(C(=O)Nc1ccccc1Cl)=C1/NC(C)(C)Cc2ccccc21,> 30 µM (inactive)
9,O=c1[nH]c(=S)n(Cc2ccco2)c(O)c1C=NCc1cccs1,> 30 µM (inactive)

# Same assay, conditions: bead-based flow cytometry RGS19-Galphao binding; measured here: Ki for RGS19-Galphao
row,SMILES,Ki [µM]
1,Cc1ccccc1-n1sc2cc(F)ccc2c1=O,0.43
2,Cc1cc(Cl)ccc1N=c1ssnc1Cl,4.13
3,Cc1cccc(N2CCN(C(=O)Cn3sc4nc(C)cc(C)c4c3=O)CC2C)c1 (configuration not stated),1.27
4,O=C(OCC1O[C@@H](OC(=O)c2cc(O)c(O)c(O)c2)[C@@H](OC(=O)c2cc(O)c(O)c(O)c2)[C@@H](OC(=O)c2cc(O)c(O)c(O)c2)[C@@H]1OC(=O)c1cc(O)c(O)c(O)c1)c1cc(O)c(O)c(O)c1 (some centres not stated),4.12
5,O=C(Cc1csc(N2CCOCC2)n1)N/N=C/c1ccc(O)c(O)c1O,4.6
6,COC(=O)c1c(-c2ccc(C(C)(C)C)cc2)csc1NC(=O)C1C2CCC(O2)C1C(=O)O (configuration not stated),7.55
7,O=c1c2ccccc2sn1-c1cc(S(=O)(=O)N2CCOCC2)ccc1N1CCCC1,0.44
8,CCN(CC)S(=O)(=O)c1cccc(C(=O)N/N=C/c2ccc(O)c(O)c2O)c1,2.03
9,Cc1[nH]n(-c2ccccc2)c(=S)c1C=NCCCN=Cc1c(C)[nH]n(-c2ccccc2)c1=S,2.63
10,O=C1C(Cl)=C(N2CCCCC2)C(=O)C(Cl)=C1c1cnc(N2CCCCC2)s1,0.63
11,CCN1/C(=C/C(C)=C/c2sc3ccccc3[n+]2CC)Sc2ccccc21,5.74
12,CN1CCN(C2=C(Cl)C(=O)C(c3cnc(N4CCCCC4)s3)=C(Cl)C2=O)CC1,0.01
13,CC(=O)N(O)CCCCCNC(=O)CCC(=O)N(O)CCCCCNC(=O)CCC(=O)N(O)CCCCCN,3.84
14,O=C(COc1ccccc1C(=O)N/N=C\c1ccc(O)c(O)c1)N/N=C/c1ccc(O)c(O)c1,3.98
15,COc1ccc(C2=CC(=O)C=CC2=O)cc1,1.84
16,CCOC(=O)c1sc(NC(=O)CSc2nnc(Cc3ccccc3)o2)c(C#N)c1C,1.33
17,COc1ccccc1-n1c(-c2cc(-c3ccco3)[nH]n2)n[nH]c1=S,13.2
18,O=C1CCC(=O)N(O)CCCCCNC(=O)CCC(=O)N(O)CCCCCNC(=O)CCC(=O)N(O)CCCCCN1,1.93
19,CCOC(=O)C1CCCN(C(=O)Cn2sc3nc(C)cc(C)c3c2=O)C1 (configuration not stated),2.1
20,CN(C)c1ncc(C2=C(Cl)C(=O)C(N3CCCC3)=C(Cl)C2=O)s1,0.79
21,O=c1c2ccccc2sn1-c1cc(S(=O)(=O)N2CCOCC2)ccc1N1CCOCC1,0.11
22,O=C(O[C@@H]1OC2COC(=O)c3cc(O)c(O)c(O)c3-c3c(cc(O)c(O)c3O)C(=O)O[C@@H]([C@H]1O)[C@@H]2O)c1cc(O)c(O)c(O)c1,2.98
23,COc1ccc(OC)c(CCNC(=O)Cn2sc3nc(C)cc(C)c3c2=O)c1,1.14
24,CN(C)S(=O)(=O)c1cccc(-n2sc3ccccc3c2=O)c1,0.15
25,CC1(C)OC(=O)C(=Cc2ccc(-c3ccc(S(N)(=O)=O)cc3)o2)C(=O)O1,2.87
26,Cc1ccc(-n2sc3ccccc3c2=O)cc1S(=O)(=O)N1CCCCC1,0.57
27,CCN=c1scc(C)n1/N=C/c1ccc(O)c(O)c1O,4.33

row,SMILES,Ki [µM]
1,CC(NC(=O)c1sc2cc([N+](=O)[O-])ccc2c1Cl)C(C)(C)C (configuration not stated),0.96
2,COC(=O)CCC(=O)Nc1sc(C)c(C)c1C(N)=O,4.09
3,Cc1ccc(NC(=O)Cn2sc3nc(C)cc(C)c3c2=O)c(Cl)c1,0.47
4,NS(=O)(=O)c1ccc(CNC(=O)/C=C/c2ccco2)cc1,10.7
5,NS(=O)(=O)c1ccc(N/N=C/c2ccc(O)c(O)c2O)c([N+](=O)[O-])c1,0.63
6,CCc1c(C(=O)Nc2ccccc2)c(C)[nH]c(=S)c1C#N,10.5
7,O=C(O)C[C@@H]1C(=O)O[C@@H]2C(COC(=O)c3cc(O)c(O)c(O)c3)O[C@@H](OC(=O)c3cc(O)c(O)c(O)c3)[C@@H](OC(=O)c3cc(O)c(O)c4c3[C@H]1[C@H](O)C(=O)O4)[C@H]2OC(=O)c1cc(O)c(O)c(O)c1 (some centres not stated),5.37
8,CCCCn1c(-c2csc(C(C)C)c2)n[nH]c1=S,10.7
9,CCC(=O)NC(c1ccc(C)cc1)c1cc([N+](=O)[O-])c2cccnc2c1O (configuration not stated),2.07
10,CC(=O)N1CC[n+]2c(-c3ccc([N+](=O)[O-])cc3)csc21,7.17
11,CN=c1scc(C)n1/N=C/c1ccc(O)c(O)c1O,2.64
12,Cc1cc(C)c2c(=O)n(CC(=O)Nc3cccc(F)c3)sc2n1,1.16
13,CN(C)[C@@H]1C(=O)C(C(=O)NCN2CCCC2)=C(O)[C@@]2(O)C(=O)C3=C(O)c4c(O)cccc4[C@@](C)(O)C3CC12 (some centres not stated),7.07
14,COCCCNC(=O)c1ccc2c3c(onc13)-c1ccccc1C2=O,3.63
15,O=[N+]([O-])c1ccc(Sc2cccc[n+]2[O-])c2nonc12,0.82
16,CCC(=O)NC1=C(Cl)C(=O)C(NC(=O)CC)=C(Cl)C1=O,0.76
17,O=C(NCCCN1CCOCC1)c1sc2cc([N+](=O)[O-])ccc2c1Cl,2.05
18,CC(=O)OCCCNc1cc(Sc2nc3ccccc3s2)c2nonc2c1[N+](=O)[O-],0.92
19,CCCNC(=O)Cn1sc2nc(C)cc(C)c2c1=O,0.93
20,Cc1[nH]n(-c2ccccc2)c(=S)c1C=Nc1cccc([N+](=O)[O-])c1,1.59
21,CCN(CC)S(=O)(=O)c1cccc(-c2n[nH]c(=S)n2/N=C/c2ccc(C(=O)OC)cc2)c1,5.82
22,C/C(=N/NC(=O)c1cc(O)c(O)c(O)c1)c1ccc([N+](=O)[O-])cc1,18.7
23,Cc1cc(C)c2c(=O)n(CC(=O)Nc3ccc(Cl)cc3)sc2n1,1.45
24,O=c1c2ccccc2sn1-c1ccccc1,0.3
25,O=c1c2ccccc2sn1-c1ccc(S(=O)(=O)N2CCCC2)cc1,0.95
26,CCOc1ccccc1-c1c2cc(O)c(=O)cc-2oc2cc(O)c(O)cc12,0.93
